Holding throughout (assay type): cell-based
Assay [1] addresses 5'-AMP-activated protein kinase catalytic subunit alpha-1 (Homo sapiens) (UniProt Q13131). As to the kind of experiment: Inhibition of AMPKa1 in human NCI-H929 cells at 10 uM by mass spectroscopic analysis relative to control.
In assay [2] the target is Rho-associated protein kinase 1 (Homo sapiens) (UniProt Q13464). Nature of the assay: Inhibition of ROCK1 in human NCI-H929 cells at 10 uM by mass spectroscopic analysis relative to control.
For assay [3], the target named is T1, Serine/threonine-protein kinase TAO3 (Homo sapiens) (UniProt Q9H2K8).
T1 sequence (whole entry): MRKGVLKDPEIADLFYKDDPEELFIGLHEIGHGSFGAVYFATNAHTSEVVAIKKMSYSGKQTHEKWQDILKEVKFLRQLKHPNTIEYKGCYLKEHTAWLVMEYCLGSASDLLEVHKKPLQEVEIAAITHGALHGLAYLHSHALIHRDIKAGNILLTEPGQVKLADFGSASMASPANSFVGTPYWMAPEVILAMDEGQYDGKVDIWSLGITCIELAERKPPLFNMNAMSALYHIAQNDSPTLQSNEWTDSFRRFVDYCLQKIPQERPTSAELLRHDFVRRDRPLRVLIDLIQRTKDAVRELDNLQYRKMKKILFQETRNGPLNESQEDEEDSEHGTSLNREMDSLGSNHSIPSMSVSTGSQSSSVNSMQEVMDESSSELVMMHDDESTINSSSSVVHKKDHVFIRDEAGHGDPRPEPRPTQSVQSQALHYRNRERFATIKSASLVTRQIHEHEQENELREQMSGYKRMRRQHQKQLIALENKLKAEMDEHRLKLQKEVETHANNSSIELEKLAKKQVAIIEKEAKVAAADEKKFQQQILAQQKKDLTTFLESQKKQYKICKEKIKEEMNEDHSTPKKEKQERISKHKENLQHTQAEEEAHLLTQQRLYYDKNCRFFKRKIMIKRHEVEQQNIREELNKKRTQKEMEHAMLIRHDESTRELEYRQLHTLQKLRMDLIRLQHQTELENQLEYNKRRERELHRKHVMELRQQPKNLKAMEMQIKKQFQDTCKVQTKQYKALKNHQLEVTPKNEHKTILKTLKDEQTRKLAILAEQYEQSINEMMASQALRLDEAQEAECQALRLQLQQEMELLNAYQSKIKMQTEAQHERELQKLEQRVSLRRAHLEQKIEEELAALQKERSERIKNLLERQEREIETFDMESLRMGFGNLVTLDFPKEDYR
Nature of the assay: Inhibition of TAO3 in human NCI-H929 cells at 10 uM by mass spectroscopic analysis relative to control.

For assay [4], the target named is T2, Tyrosine-protein kinase Mer (Homo sapiens) (UniProt Q12866).
T2 sequence (whole entry): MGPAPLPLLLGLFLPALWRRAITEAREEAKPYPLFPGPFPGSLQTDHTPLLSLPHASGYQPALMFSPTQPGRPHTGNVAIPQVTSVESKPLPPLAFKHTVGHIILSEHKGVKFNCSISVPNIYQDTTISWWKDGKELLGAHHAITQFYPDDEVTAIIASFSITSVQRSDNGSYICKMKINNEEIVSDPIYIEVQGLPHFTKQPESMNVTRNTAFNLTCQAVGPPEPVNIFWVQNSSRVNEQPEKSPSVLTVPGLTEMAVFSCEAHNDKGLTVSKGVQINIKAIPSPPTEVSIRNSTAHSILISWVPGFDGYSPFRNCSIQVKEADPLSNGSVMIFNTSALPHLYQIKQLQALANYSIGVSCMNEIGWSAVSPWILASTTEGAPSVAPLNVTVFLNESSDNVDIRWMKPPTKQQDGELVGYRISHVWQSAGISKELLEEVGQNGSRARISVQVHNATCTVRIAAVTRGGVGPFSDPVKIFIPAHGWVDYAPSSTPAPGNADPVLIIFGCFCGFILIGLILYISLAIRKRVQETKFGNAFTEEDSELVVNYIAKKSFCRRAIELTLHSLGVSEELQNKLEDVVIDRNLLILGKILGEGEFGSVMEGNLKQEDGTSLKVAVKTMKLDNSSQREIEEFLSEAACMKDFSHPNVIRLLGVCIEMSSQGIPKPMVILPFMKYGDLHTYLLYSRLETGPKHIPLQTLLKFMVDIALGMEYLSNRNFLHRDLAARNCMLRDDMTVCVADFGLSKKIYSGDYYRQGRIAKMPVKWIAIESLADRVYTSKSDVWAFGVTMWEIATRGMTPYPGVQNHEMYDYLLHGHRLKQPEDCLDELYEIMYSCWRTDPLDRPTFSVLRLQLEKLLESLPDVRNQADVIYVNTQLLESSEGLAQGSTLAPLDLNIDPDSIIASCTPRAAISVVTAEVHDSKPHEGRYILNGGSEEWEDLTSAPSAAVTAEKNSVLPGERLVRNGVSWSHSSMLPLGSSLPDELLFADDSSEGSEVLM
As to the kind of experiment: Inhibition of MER in human NCI-H929 cells at 10 uM by mass spectroscopic analysis relative to control.

Rho-associated protein kinase 1 (Homo sapiens), sequence (Q13464 2-1354 limits assumed): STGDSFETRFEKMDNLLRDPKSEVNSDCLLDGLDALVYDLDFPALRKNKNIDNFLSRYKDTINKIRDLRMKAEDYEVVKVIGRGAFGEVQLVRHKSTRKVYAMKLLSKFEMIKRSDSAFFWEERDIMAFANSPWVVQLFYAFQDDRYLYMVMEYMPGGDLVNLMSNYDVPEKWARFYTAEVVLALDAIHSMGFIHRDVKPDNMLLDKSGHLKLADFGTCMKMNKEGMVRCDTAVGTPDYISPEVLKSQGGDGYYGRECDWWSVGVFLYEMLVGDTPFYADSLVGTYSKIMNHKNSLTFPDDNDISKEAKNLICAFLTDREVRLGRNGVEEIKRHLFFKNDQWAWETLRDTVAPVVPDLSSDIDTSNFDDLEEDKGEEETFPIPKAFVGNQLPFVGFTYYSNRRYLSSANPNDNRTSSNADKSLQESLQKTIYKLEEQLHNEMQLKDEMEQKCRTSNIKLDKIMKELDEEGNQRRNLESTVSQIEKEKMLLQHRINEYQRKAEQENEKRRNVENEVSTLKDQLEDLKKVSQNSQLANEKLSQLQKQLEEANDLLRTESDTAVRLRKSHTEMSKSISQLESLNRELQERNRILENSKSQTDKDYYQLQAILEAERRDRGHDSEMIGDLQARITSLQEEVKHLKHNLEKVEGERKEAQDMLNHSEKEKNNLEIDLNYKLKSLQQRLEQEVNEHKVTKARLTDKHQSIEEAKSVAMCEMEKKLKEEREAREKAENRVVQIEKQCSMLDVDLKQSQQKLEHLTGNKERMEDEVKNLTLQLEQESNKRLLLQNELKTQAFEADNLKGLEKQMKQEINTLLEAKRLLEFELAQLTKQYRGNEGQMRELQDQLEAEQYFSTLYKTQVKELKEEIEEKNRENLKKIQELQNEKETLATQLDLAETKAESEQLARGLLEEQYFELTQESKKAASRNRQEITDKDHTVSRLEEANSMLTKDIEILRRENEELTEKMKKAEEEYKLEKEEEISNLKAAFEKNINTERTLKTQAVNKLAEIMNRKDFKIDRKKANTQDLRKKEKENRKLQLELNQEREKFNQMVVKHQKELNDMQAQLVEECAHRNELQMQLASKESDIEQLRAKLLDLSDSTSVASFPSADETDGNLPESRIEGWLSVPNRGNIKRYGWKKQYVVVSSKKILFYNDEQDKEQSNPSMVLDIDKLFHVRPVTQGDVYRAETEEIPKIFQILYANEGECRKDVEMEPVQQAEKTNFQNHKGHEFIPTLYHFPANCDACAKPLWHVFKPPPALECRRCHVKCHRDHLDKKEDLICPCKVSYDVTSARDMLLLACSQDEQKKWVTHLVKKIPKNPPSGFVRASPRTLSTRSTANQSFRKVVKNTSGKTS
5'-AMP-activated protein kinase catalytic subunit alpha-1 (Homo sapiens), sequence (Q13131 whole entry, looked up): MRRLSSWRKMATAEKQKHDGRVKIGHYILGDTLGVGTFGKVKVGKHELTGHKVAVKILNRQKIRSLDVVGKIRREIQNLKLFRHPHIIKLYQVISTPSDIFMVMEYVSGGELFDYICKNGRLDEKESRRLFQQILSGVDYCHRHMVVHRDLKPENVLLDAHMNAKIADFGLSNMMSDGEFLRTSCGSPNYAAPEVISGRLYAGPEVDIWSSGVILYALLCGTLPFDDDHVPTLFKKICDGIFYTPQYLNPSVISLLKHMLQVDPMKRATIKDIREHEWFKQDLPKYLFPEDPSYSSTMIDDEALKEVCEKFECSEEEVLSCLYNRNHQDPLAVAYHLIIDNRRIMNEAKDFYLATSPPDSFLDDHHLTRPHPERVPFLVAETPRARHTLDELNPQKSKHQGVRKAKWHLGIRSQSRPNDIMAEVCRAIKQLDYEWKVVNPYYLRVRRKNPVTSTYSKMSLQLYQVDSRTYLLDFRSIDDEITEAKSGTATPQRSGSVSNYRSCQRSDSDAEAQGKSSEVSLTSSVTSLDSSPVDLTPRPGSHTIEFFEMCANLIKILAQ

As a reminder, the inhibition is the share of the control response that was lost under treatment. Read a low inhibition as a response near the control. Regarding `CN(C1CC1)S(=O)(=O)c1ccc(-c2cnc(N)c(-c3ccc4c(c3)CCNC4=O)c2)c(F)c1`, the inhibition in assay [1] and in assay [2] was 0% throughout.

Take `COc1cc(NS(=O)(=O)C2CC2)ccc1-c1cnc(N)c(-c2ccc3c(c2)CCNC3=O)c1`: the inhibition in assay [1], in assay [3] and in assay [4] was 0% in each case.

For the compound `Nc1ncc(-c2ccc(NS(=O)(=O)C3CC3)cc2F)cc1-c1ccc2c(c1)CCNC2=O`, the inhibition in assay [1] and in assay [4] was 0% in each case.

`Nc1ncc(-c2ccc(NS(=O)(=O)C3CC3)cc2OC2CCCCC2)cc1-c1ccc2c(c1)CCNC2=O`: the inhibition in assay [3] and in assay [4] was 0% each time.

On to `Nc1ncc(-c2cccc3ncsc23)cc1-c1ccc2c(c1)CCNC2=O`, for which the inhibition in assay [1], in assay [2] and in assay [3] was 0% each time.

Consider `Nc1ncc(-c2cccc([N+](=O)[O-])c2F)cc1-c1ccc2c(c1)CCNC2=O`, for which, in assay [2], the inhibition amounted to 0%.

The record behind these values is ChEMBL document CHEMBL4804281, “STK4 inhibitors for treatment of hematologic malignancies” (2020).
